{"source": "patent US10954255B2", "about": "“Phospholipid analogues” (Karl-Franzens-Universitaet Graz, priority 2018, dated 2021)", "key": {"[1]": {"tested_on": "Human ECs (HUVECs and HUVECtert)", "assay": "Cell survival test, serum deprivation", "assay_type": "cell-based", "details": "M199 without serum, 24 to 49 hrs, FIG. 6-8", "description": "Human ECs (HUVECs and HUVECtert) were cultured Nunclon™ Delta surface flasks (Bartelt; Graz, Austria) in the medium M199 (Gibco) supplemented with 20% fetal calf serum (FCS, Gibco; Carlsbad, Calif., USA), penicillin-streptomycin-amphotericin B (PSF, Lonza; Basel, Switzerland), glutamine (Lonza) and ECGS-heparin (PromoCell; Heidelberg, Germany) in the 95% humidified atmosphere with 5% CO2 at 37° C. For stimulation of cells, they were seeded in the same medium in 96-well Nunclon™ Delta plates (Bartelt). On the day 2, the full medium was exchanged to M199 medium without serum but containing lipids (100 μl per well). In experiments on cell survival against hydrogen peroxide, camptothecin or doxorubicin, the full medium was exchanged to M199 containing 7% FCS and OxPAPC at 40 μg/ml or 50 μg/ml added as a two-fold concentrated solution (50 μl per well). After 20 to 30 min preincubation, toxic agents were added also as two-fold concentrated solutions in M199/7% FCS (50 μl per well). After 16 to 72 hrs of cell incubation at 37° C. and 5% CO2 in 95% humidity, either a nuclei counting of the remained cells or an XTT assay were performed. For the nuclei counting, the medium containing dead cells was aspirated and a Hoechst 33342 solution at the concentration of 1 μg/ml in PBS containing Ca^2+ and Mg^2+ (50 μl per well) was added. After at least 20 min incubation of cells at 37° C. in the cell culture incubator, the stained nuclei were counted using the EnSight plate reader (Perkin-Elmer; Waltham, Mass., USA). An XTT assay with the incubation time of 2 hrs was performed as described (Oskolkova, Godschachner and Bochkov, Inflammation 2017; 40(2): 530-536).\nOxPLs protect endothelial cells (ECs) against serum deprivation. ECs were seeded in full M199 medium containing 20% serum. On the day 2, the medium was exchanged to M199 without serum and containing phospholipids at increasing concentrations. After 48 hrs, nuclei of remaining cells were stained by Hoechst and counted. Cells treated with 20% FCS serve as positive and with PBS as negative controls, respectively.\nECs were treated as described in Example 13. After 24 hrs, nuclei of remaining cells were stained by Hoechst 33342 and counted. Cells treated with OxPAPC and 20% FCS serve as positive and with PBS as negative controls, respectively.\nECs were treated with increasing concentrations of OxAA as described in Example 13. After 49 hrs, nuclei of remaining cells were stained by Hoechst 33342 and counted. Cells treated with 20% FCS or with 20 μM OxPAPC serve as positive and with PBS as negative controls, respectively."}, "LPS-induced lung injury": {"tested_on": "LPS-induced lung injury", "assay": "LPS-induced lung injury and vascular barrier dysfunction in mice (BAL, TNFα, optical imaging)", "assay_type": "in vivo", "details": "10 μg/kg i.v. concurrently and 5 hrs after LPS i.t., day 1 and day 3, FIG. 5", "description": "Eight-week old C57B1 mice were purchased from Jackson Laboratories (Bar Harbor, USA). Animals were handled according to the National Institutes of Health Guide for the Care and Use of Laboratory Animals. Bacterial lipopolysaccharide (LPS, 0.63 mg/kg body wt; Escherichia coli O55:B5) or sterile water was injected intratracheally in a small volume (20-30 μl) using a 20-gauge catheter (Exelint International, USA). Iloprost (10 μg/kg), ILO-PC (10 μg/kg) or sterile saline solution was administrated concurrently and 5 hrs after LPS instillation by intravenous injection in the external jugular vein. Animals were sacrificed at day-1 or day-3 by exsanguination under anesthesia. BAL was performed using 1 ml of sterile Hanks balanced salt buffer and measurements of cell count and protein concentration were conducted as previously described (Fu P et al., Eur. Respir. J. 2009, 33:612-624). […]\nIn vivo optical imaging: Mice were injected with 100 μl of 2 nmol Angiosense 680 EX (a vascular fluorescent blood pool imaging agent purchased from PerkinElmer, USA), intravenously via tail vein. Fluorescence optical imaging was performed in the Integrated Small Animal Imaging Research Resource (iSAIRR) at the University of Chicago using Xenogen IVIS 200 Spectrum (Caliper Life Sciences, USA). […]"}, "[2]": {"tested_on": "human pulmonary artery endothelial monolayers", "assay": "Endothelial monolayer permeability, transendothelial electrical resistance (TER)", "assay_type": "cell-based", "details": "for endothelial barrier-protective effect compared with free iloprost (TER): 0.5 μM, post-treatment 15 min or 5 hrs after LPS 200 ng/ml, monitored over 20 hours, FIG. 4", "description": "The cellular barrier properties were analyzed by measurements of transendothelial electrical resistance (TER) across confluent human pulmonary artery endothelial monolayers using an electrical cell-substrate impedance sensing system (Applied Biophysics, USA) as previously described (Birukova A A et al., Am. J. Physiol. Lung Cell. Mol. Physiol. 2006, 290(3):L540-548; Birukova A A et al. FASEB J. 2004, 18(15):1879-1890)."}, "LPS-induced chemokine KC": {"tested_on": "LPS-induced chemokine KC", "assay": "Induction of chemokine KC in plasma of mice injected with LPS", "assay_type": "in vivo", "details": "phospholipid 200 μg/mouse i.p. with LPS 20 μg/mouse, blood after 2 and 4 hrs, FIG. 2", "description": "Experiments were performed according to Austrian animal rights law using female C57BL/6J mice (Jackson Laboratories, Germany) of 20 g body weight. Mice were injected i.p. with 200 μl of either with saline, phospholipid (200 μg/mouse), LPS (Escherichia coli O55:B5, 20 μg/mouse) or a combination of LPS and the phospholipid. After 2 and 4 hrs blood was taken retroorbitaly and placed into Eppendorf tubes containing EDTA. After centrifugation of cells, plasma was collected and analyzed by ELISA for murine KC."}}, "note": "Entries after “also recorded” stand apart in the source; their conditions may differ.", "data": [{"compound": "CCCCCCCCCCCCCCCCOCC(COP(=O)(O)OCC[N+](C)(C)C)NC(=O)CCC/C=C\\C[C@@H]1[C@@H](/C=C/[C@@H](O)CCCCC)[C@H](O)C[C@@H]1O", "note": "(stereo partly drawn) [KFU-PGF2α, 1-O-Hexadecyl-2-deoxy-2-(prostaglandin F2α)amino-sn-glycero-3-phosphocholine]", "values": [{"measurement": "protection of ECs against serum deprivation (nuclei counting, Hoechst 33342)", "setting": "[1]", "value": "protective effects"}]}, {"compound": "CCCCC[C@H](O)/C=C/[C@H]1C=CC(=O)[C@H]1C/C=C\\CCCC(=O)O", "note": "[iPGA2, 8-iso-prostaglandin A2, reference compound]", "values": [{"measurement": "protection of ECs against serum deprivation (nuclei counting, Hoechst 33342)", "setting": "[1]", "value": "not active; also recorded: not protective"}]}, {"compound": "CC#CCC(C)[C@H](O)/C=C/[C@@H]1C2C/C(=C/CCCC(=O)NC(COCCCCCCCCCCCCCCCC)COP(=O)(O)OCC[N+](C)(C)C)CC2C[C@H]1O", "note": "(stereo partly shown) [KFU-iloprost, 1-O-Hexadecyl-2-deoxy-2-(iloprost)amino-sn-glycero-3-phosphocholine]", "values": [{"measurement": "protection from LPS-induced lung injury, barrier dysfunction and edema compared with free iloprost", "setting": "LPS-induced lung injury", "value": "better protection from edema in vivo as compared to free molecule"}, {"measurement": "protection from LPS-induced lung injury, barrier dysfunction and edema compared with free iloprost", "setting": "LPS-induced lung injury; listed as KFU-ILO", "value": "better protective response on LPS-induced lung injury and barrier dysfunction compared to a free molecule"}, {"measurement": "endothelial barrier-protective effect compared with free iloprost (TER)", "setting": "[2]", "value": "stronger endothelial barrier-protective effect than free Iloprost"}, {"measurement": "endothelial barrier-protective effect compared with free iloprost (TER)", "setting": "[2]; listed as KFU-conjugated iloprost", "value": "stronger and more prolonged barrier-protective activity as compared to free iloprost"}]}, {"compound": "CCCCCCCCCCCCCCCCOCC(COP(=O)(O)OCC[N+](C)(C)C)NC(=O)CCC/C=C\\C[C@H]1C(=O)C[C@@H](O)[C@@H]1/C=C/[C@@H](O)CCCCC", "note": "(stereo partly shown) [KFU-PGE2, 1-O-Hexadecyl-2-deoxy-2-(prostaglandin E2)amino-sn-glycero-3-phosphocholine]", "values": [{"measurement": "protection of ECs against serum deprivation (nuclei counting, Hoechst 33342)", "setting": "[1]", "value": "protective effects"}, {"measurement": "endothelial barrier protection/enhancement (TER)", "setting": "[2]; cultured endothelial cells, two concentrations, FIG. 3", "value": "protects endothelial cell barrier"}, {"measurement": "induction of inflammatory chemokine KC in plasma (LPS-induced inflammation in vivo)", "setting": "LPS-induced chemokine KC", "value": "inhibits induction of inflammatory chemokine KC"}]}, {"compound": "CCCCCCCCCCCCCCCCOCC(COP(=O)(O)OCC[N+](C)(C)C)NC(=O)CCC/C=C\\C[C@@H]1C(=O)C=C[C@@H]1/C=C/[C@@H](O)CCCCC", "note": "(stereo partly shown) [KFU-iPGA2, 1-O-Hexadecyl-2-deoxy-2-(8-iso-prostaglandin A2)amino-sn-glycero-3-phosphocholine]", "values": [{"measurement": "protection of ECs against serum deprivation (nuclei counting, Hoechst 33342)", "setting": "[1]; listed as iPGA2-NH-PC", "value": "protective effects; also recorded: protect ECs against serum deprivation"}]}]}
